Key:
HT22 cells = assay: Maintenance of total GSH in the presence of glutamate; format: cell-based, mouse; details: derivative 1-10 μM, 5 mM glutamate, 24 hr
Method in brief: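 HT22 cells treated 24 hr with each derivative at 1-10 μM plus 5 mM glutamate, then extracts analysed for total GSH by chemical assay. Fisetin (10 μM) served as positive control.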

Nrf2 = Nrf2 induction, SDS-PAGE and Western blotting of nuclear extracts; format: cell-based; details: cells treated 1, 2 and 4 hr
Protocol: For immunoblotting of Nrf2, nuclear extracts were prepared as described (Schreiber, et al., Nucleic Acids Res. (1989) 17 (15), 6419) from untreated cells and cells treated with the Fisetin derivatives for 1, 2 and 4 hr. Fisetin was used as a positive control. […] Protein concentrations were determined using the BCA protein assay (Pierce). Equal amounts of protein were solubilized in 2.5×SDS-sample buffer, separated on 10% SDS-polyacrylamide gels and transferred to nitrocellulose. Equal loading and transfer of the samples was confirmed by staining the nitrocellulose with Ponceau-S. Transfers were blocked for 1 hr at room temperature with 5% nonfat milk in TBS/0.1% Tween 20 and then incubated overnight at 4° C. in the primary antibody diluted in 5% BSA in TBS/0.05% Tween 20. The primary antibodies used were: anti-Nrf2 (#SC13032; 1/1000) from Santa Cruz Biotechnology (Santa Cruz, Calif.) and anti-β-actin (#5125; 1/20,000) from Cell Signaling (Beverly, Mass.). The transfers were rinsed with TBS/0.05% Tween 20 and incubated for 1 hr at room temperature in horseradish peroxidase-goat anti-rabbit or goat anti-mouse (Biorad, Hercules, Calif.) diluted 1/5000 in 5% nonfat milk in TBS/0.1% Tween 20. The immunoblots were developed with the Super Signal reagent (Pierce, Rockford, Ill.).
The transcription factor Nrf2 plays a key role in regulating GSH metabolism in many different cell types (Lewerenz, et al., Antioxidant & Redox Signaling. (2011) 14, 1449-1465). We have shown that Fisetin can induce Nrf2 and this correlates with its ability to enhance GSH levels (Maher, P. et al., Genes. Nutr. (2009) September 10). To determine if the derivatives which can maintain GSH levels do so by increasing Nrf2 we looked at Nrf2 levels in the nuclei of derivative-treated cells using Fisetin as a positive control (Table 4). […] This was particularly true for the derivatives based on the quinoline scaffold where none of them increased Nrf2 despite being very effective at maintaining GSH levels.

[1] = TEAC, ABTS decolorization assay; details: relative to Trolox
Method in brief: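 Compound in ethanol added to persulfate-generated ABTS radical cation (OD ~0.7 at 734 nm); absorbance decrease followed at 734 nm for 4 min. TEAC is the slope of percent absorbance inhibition versus concentration divided by the corresponding Trolox slope.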

Row | SMILES | GSH (ability to maintain GSH) (HT22 cells) | Nrf2 (ability to induce the transcription factor Nrf2) (Nrf2) | TEAC [1]
1 | Oc1ccc(-c2cc(OC3CCCC3)c3ccccc3n2)cc1O [CMS-121, 4-cyclopentyloxy-2-(3,4-dihydroxyphenyl) quinoline] | yes | No | 0.40
2 | Cc1cc2oc(-c3ccc(N(C)C)cc3)c(O)c(=O)c2cc1C [CMS-117, 2-(4-(dimethylamino)phenyl)-3-hydroxy-6,7-dimethyl-4H-chromen-4-one] | yes | No | 3
3 | CC(C)Oc1cc(-c2ccc(O)c(O)c2)nc2ccccc12 [CMS-024, 4-isopropoxy-2-(3,4-dihydroxyphenyl) quinoline] | yes | No | 0.18
4 | CN(C)c1ccc(-c2oc3c(ccc4ccccc43)c(=O)c2O)cc1 [CMS-118, 2-(4-(dimethylamino)phenyl)-3-hydroxy-4H-benzo[h]chromen-4-one] | yes | No | 0.93
5 | O=c1c(O)c(-c2ccc(O)c(O)c2)oc2ccccc12 [CMS-04P, reference compound] | yes | Yes | 2
6 | COc1cc(-c2oc3cc(C)c(C)cc3c(=O)c2O)ccc1OCc1ccccc1 [CMS-059, 2-(4-(benzyloxy)-3-methoxyphenyl)-3-hydroxy-6,7-dimethyl-4H-chromen-4-one] | no |  | 0.27
7 | COc1cc(-c2oc3cc(C)c(C)cc3c(=O)c2O)ccc1O [CMS-069, 3-hydroxy-2-(4-hydroxy-3-methoxyphenyl)-6,7-dimethyl-4H-chromen-4-one] | no |  | 1.89
8 | Cc1cc2oc(-c3ccc(N4CCCC4)cc3)c(O)c(=O)c2cc1C [CMS-122, 3-hydroxy-6,7-dimethyl-2-(4-(pyrrolidin-1-yl)phenyl)-4H-chromen-4-one] | yes | No | 2.4
9 | O=C(/C=C/c1ccc(O)c(O)c1)c1ccc2ccccc2c1O [CMS-034, (E)-3-(3,4-dihydroxyphenyl)-1-(1-hydroxynaphthalen-2-yl)prop-2-en-1-one] | yes | Yes | 2.8
10 | Cc1cc(O)c(C(=O)/C=C/c2ccc(O)c(O)c2)cc1C [CMS-011, (E)-3-(3,4-dihydroxyphenyl)-1-(2-hydroxy-4,5-dimethylphenyl)prop-2-en-1-one] | yes | Yes | 2.7
11 | O=c1c(O)c(-c2ccc(O)c(O)c2)oc2cc(O)ccc12 [Fisetin, 3,7,3′,4′-Tetrahydroxyflavone, reference compound] | yes | Yes | 3
12 | O=c1c(O)c(-c2ccc(O)c(O)c2)oc2c1ccc1ccccc12 [CMS-040, 2-(3,4-dihydroxyphenyl)-3-hydroxy-4H-benzo[h]chromen-4-one] | no |  | 2.4
13 | COc1cc(-c2ccc(O)c(O)c2)nc2ccccc12 [CMS-007, 4-methoxy-2-(3,4-dihydroxyphenyl) quinoline] | yes | No | 0.36
14 | CCOc1cc(-c2ccc(O)c(O)c2)nc2ccccc12 [CMS-023, 4-ethoxy-2-(3,4-dihydroxyphenyl) quinoline] | yes | No | 0.90
15 | O=c1c(O)c(-c2ccc(N3CCCC3)c(O)c2)oc2c1ccc1ccccc12 [CMS-140, 3-hydroxy-2-(3-hydroxy-4-(pyrrolidin-1-yl)phenyl)-4H-benzo[h]chromen-4-one] | Yes | No | 2.1
16 | COc1ccc(/C=C/C(=O)c2cc(C)c(C)cc2O)cc1OCc1ccccc1 [CMS-086, (E)-3-(3-(benzyloxy)-4-methoxyphenyl)-1-(2-hydroxy-4,5-dimethylphenyl)prop-2-en-1-one] | yes | Yes | 0.12

— patent US20140186329A1, “POLYPHENOL ANALOGS TO TREAT ISCHEMIA” (priority 2011, published 2014)
